The source of these data is BindingDB's records for PubMed 1994002 (National Institute of Neurological Disorders and Stroke, 1991).

“And” between values parts separate entries of the source, which are not always exact repeats. Equal entries are not always repeated.

As a reminder, the Ki is the dissociation constant of the complex between target and ligand, obtained from inhibition or displacement.

The target of experiment [1] is T1, Muscarinic acetylcholine receptor M5 (Homo sapiens, UniProt P08912).
T1 sequence (P08912 whole entry): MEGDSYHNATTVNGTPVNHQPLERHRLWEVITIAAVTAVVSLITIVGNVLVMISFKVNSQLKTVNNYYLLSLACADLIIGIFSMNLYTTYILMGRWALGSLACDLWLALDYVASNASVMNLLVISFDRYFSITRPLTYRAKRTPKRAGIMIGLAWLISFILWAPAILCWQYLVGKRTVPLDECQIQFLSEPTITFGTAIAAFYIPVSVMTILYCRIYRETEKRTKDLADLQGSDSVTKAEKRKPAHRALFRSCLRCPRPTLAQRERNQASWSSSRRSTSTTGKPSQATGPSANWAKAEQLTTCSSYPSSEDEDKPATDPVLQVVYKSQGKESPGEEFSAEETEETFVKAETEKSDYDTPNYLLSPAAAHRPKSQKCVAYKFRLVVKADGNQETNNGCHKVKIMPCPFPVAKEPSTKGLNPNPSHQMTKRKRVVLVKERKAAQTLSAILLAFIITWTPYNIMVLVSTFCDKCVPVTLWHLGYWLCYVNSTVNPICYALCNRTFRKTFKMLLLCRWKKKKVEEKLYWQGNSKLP

In experiment [2] the target is T2, Muscarinic acetylcholine receptor M2 (Homo sapiens, UniProt P08172).
T2 sequence (P08172 whole entry): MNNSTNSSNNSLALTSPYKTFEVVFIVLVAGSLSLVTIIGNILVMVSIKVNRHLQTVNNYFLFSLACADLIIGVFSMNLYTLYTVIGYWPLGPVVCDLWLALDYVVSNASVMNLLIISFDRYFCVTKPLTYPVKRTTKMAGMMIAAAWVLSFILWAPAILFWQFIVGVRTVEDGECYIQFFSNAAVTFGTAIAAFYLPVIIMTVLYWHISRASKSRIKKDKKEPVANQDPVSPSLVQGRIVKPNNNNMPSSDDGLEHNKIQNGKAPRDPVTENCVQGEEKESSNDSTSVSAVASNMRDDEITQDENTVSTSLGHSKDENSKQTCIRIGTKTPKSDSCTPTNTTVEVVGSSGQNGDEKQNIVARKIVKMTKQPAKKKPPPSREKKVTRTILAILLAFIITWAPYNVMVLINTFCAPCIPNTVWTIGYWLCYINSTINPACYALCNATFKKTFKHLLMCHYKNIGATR

Experiment [3] has as its target T3, Muscarinic acetylcholine receptor M4 (Homo sapiens, UniProt P08173).
T3 sequence (P08173 whole entry): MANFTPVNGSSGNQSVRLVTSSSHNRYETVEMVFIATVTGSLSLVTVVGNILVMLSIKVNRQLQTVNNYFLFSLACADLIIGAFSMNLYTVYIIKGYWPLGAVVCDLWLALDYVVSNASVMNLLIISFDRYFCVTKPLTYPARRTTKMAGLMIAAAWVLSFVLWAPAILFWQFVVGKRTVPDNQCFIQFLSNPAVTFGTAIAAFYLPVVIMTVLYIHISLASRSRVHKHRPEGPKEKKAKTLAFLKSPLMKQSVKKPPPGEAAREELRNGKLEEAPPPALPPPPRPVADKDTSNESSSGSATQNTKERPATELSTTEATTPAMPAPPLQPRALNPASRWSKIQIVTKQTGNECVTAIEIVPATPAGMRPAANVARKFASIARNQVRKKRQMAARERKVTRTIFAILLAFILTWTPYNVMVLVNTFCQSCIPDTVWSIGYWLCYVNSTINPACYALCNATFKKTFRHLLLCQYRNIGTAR

Molecule `C[N+]1(C)CCC(OC(=O)C(c2ccccc2)c2ccccc2)CC1` came in with a Ki in experiment [1] of 1.05 nM.

Regarding `CCCN(CCC)CC1CCCCN1CCNC(=O)N1c2ccccc2C(=O)Nc2cccnc21` (stereo not drawn), the inhibitory constant (Ki) in experiment [2] came out at 6.03 nM; in experiment [3], 10 nM; in experiment [1], 537 nM.

`CCN(CC)CC1CCCCN1CC(=O)N1c2ccccc2NC(=O)c2ccccc21` (single isomer, unassigned; (+)) [CAS_121029-35-4]: the Ki in experiment [2] is 55 nM; in experiment [3], 162 nM; in experiment [1], 3020 nM.

Turning to `O[Si](CCCN1CCCCC1)(c1ccc(F)cc1)C1CCCCC1` (stereo not drawn) [CAS_5311091], the inhibitory constant (Ki) in experiment [2] turned out to be 132 nM; in experiment [3], 31.6 nM; in experiment [1] it was 93.3 nM.

Consider `C[C@H]1OC(=O)C2C[C@H]3CCCC[C@@H]3[C@@H](/C=C/[C@@H]3CCC[C@H](C)N3C)C21` (stereo partly drawn) [HIMBACINE], for which the Ki came out at 10 nM in experiment [2] and 490 nM in experiment [1].

For `COc1ccccc1CNCCCCCCNCCCCCCCCNCCCCCCNCc1ccccc1OC` [METHOCTRAMINE], the Ki in experiment [3] was 31.6 nM; in experiment [1], 135 nM.

As to `CCN(CC)CCCCC1CCN(CC(=O)N2c3ccccc3C(=O)Nc3cccnc32)CC1` [NSC_129989], the Ki worked out at 6.46 nM in experiment [3] and 832 nM in experiment [1].

As for `OC(C#CCN1CCCCC1)(c1ccccc1)C1CCCCC1` (stereo not drawn) [NSC_2054314], the Ki was 20.9 nM and 72.4 nM in experiment [2]; 3.02 nM and 19.5 nM in experiment [3].
